Test results reported in patent US9505765B2, “4-alkoxy/aralkoxy-5-substituted-pyrrolopyrimidine compounds as TAK1 inhibitors in disease treatment” (Confluence Life Sciences Inc., priority 2012, dated 2016).

Columns and labels:
TAK1-TAB1 = TAK1-TAB1 (Homo sapiens (Human), UniProt O43318); test: TAK1-TAB1 competitive binding assay (LanthaScreen), without pre-incubation; conditions: 10 nM TAK1-TAB1, 100 nM kinase tracer-236, read-out: TAK1-TAB1 Inhibition IC50
Text: TAK1-TAB1 Binding Inhibitory Potency: The ability of candidate compounds to interact with TAK1-TAB1 is quantitated by a competitive binding assay using the LanthaScreen technology developed by Life Technologies. This assay is based on the binding of a proprietary, Alexa Fluor® 647-labeled, ATP-competitive kinase inhibitor (kinase tracer-236) to the TAK1-TAB1 construct in presence of a europium-conjugated antibody, resulting in a FRET (fluorescence resonance energy transfer) signal. Displacement of the kinase tracer by compound results in a lower emission ratio upon excitation of the europium chelate. Candidate compounds are designed as potential irreversible inhibitors of TAK1-TAB1, capable of ligating to an active site cysteine residue. The time dependent nature of irreversible inhibition is investigated by performing the binding assay with and without a pre-incubation of compound and TAK1-TAB1.
The inhibitory potency of candidate compounds is measured in 20 mM HEPES pH 7.5, 10 mM MgCl2, 0.01% BSA, 0.0005% Tween-20, and 2% DMSO in the presence of 10 nM TAK1-TAB1, 2 nM Eu-anti-his antibody, and 100 nM kinase tracer-236 using a 384-well plate format. Background signal is defined in the absence of TAK1-TAB1 and uninhibited signal is defined in the presence of vehicle (2% DMSO) alone. Compounds were evaluated in an 11 point dose-response ranging from 20 μM to 0.34 nM. The binding assays are performed under two conditions to evaluate time dependence of inhibition. For the pre-incubation assay, TAK1-TAB1 and Eu-anti-his antibody are preincubated with compound or vehicle for two hours prior to the addition of kinase tracer. The non-preincubated assay is run in which TAK1-TAB1 and Eu-anti-his antibody are added to a mixture of compound and kinase tracer. IC50 values of compounds are determined using a 4 parameter logistical fit of emission ratio as a function of the concentration of compound.
Compounds were tested in accordance with the above described assay, without pre-incubation, yielding the values described below: […]

A549 cells = test: IL-1β stimulated IL-6 Production in A549 cells; format: cell-based; conditions: Homo sapiens, 1 ng/ml rhIL1β, 18 hrs; for IC50: read-out: IL-6 Production IC; for activity at 5 µM: 5 μM compound, read-out: IL-6 Production % Control 5 μM; for activity at 50 µM: 50 μM compound, read-out: IL-6 Production % Control 50 μM
Protocol: IL-1β stimulated IL-6 Production in A549 cells: The cellular efficacy of compound candidates is determined using the human lung epithelial cell line A549 (ATCC #CCL-185), based upon the methods of Wheeler et al. (2004) J. Nutrition 134, 1039-1044, and Eda et al. (2011) Cell Biol. Int. 35, 355-358. A549 cells produce a number of cytokines (IL6, IL8 and TNFα) in response to stimulation with IL1β. To induce the production of inflammatory mediators, A549 cells are plated at a final concentration of 3×10^5 cells/well of a 96 well flat bottom plate in F12-K medium supplemented with 10% fetal bovine serum, 100 units/ml penicillin and 100 μg/ml streptomycin (Gibco BRL Life Technologies). Cells are treated with or without inhibitors for 3 hrs then stimulated with 1 ng/ml rhIL1β (R & D Systems) for an additional 18 hrs at 37° C. with 5% CO2. The supernatants are removed and stored at −20° C. until they are to be assayed. The levels of inflammatory mediators are determined using commercial MSD cytokine kits (Meso Scale Discovery) as per the manufacturer's instructions. Standard curves are based on 7 steps of 4× serial dilutions, with a wide dynamic range of 10000 pg/ml to 2.4 pg/ml, and the blank in triplicate. Lower limit of detection (LLOD) is calculated at the commonly used 3× the standard deviation of the blank.
Compounds were tested in accordance with the above described assay, yielding the values described below: […]

Chain of TAK1-TAB1 (O43318 other isoform, or with tags, fused parts or gaps): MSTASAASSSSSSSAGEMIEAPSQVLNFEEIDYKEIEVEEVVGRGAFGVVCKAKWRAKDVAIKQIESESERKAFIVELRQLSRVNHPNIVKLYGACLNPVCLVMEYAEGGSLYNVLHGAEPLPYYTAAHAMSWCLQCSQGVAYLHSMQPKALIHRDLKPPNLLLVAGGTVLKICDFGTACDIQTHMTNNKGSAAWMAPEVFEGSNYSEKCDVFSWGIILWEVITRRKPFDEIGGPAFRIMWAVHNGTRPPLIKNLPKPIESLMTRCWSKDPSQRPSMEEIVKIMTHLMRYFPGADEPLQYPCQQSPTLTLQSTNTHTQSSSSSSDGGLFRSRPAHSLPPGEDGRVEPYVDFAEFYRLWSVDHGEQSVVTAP

## CC(C)(C)COc1ncnc2[nH]cc(/C=C/C(N)=O)c12 [Example 192, (E)-3-(4-(neopentyloxy)-7H-pyrrolo[2,3-d]pyrimidin-5-yl)acrylamide]
TAK1-TAB1
  IC50: 0.0052 µM
A549 cells
  IC50: 0.078 µM
  activity at 5 µM: 0%
  activity at 50 µM: 0%

## CC(C)(O)COc1ncnc2[nH]cc(/C=C/C(N)=O)c12 [Example 193, (E)-3-(4-(2-hydroxy-2-methylpropoxy)-7H-pyrrolo[2,3-d]pyrimidin-5-yl)acrylamide]
TAK1-TAB1
  IC50: 0.075 µM
A549 cells
  IC50: 1.2 µM
  activity at 5 µM: 22%
  activity at 50 µM: 0%

## CC(C)(C)Oc1ncnc2[nH]cc(/C=C/C(N)=O)c12 [Example 195, (E)-3-(4-(tert-butoxy)-7H-pyrrolo[2,3-d]pyrimidin-5-yl)acrylamide]
TAK1-TAB1
  IC50: 0.013 µM
A549 cells
  IC50: 0.92 µM
  activity at 5 µM: 19%
  activity at 50 µM: 1%

## CC(C)COc1ncnc2[nH]cc(/C=C(\Cl)C(N)=O)c12 [Example 196, (Z)-2-chloro-3-(4-isobutoxy-7H-pyrrolo[2,3-d]pyrimidin-5-yl)acrylamide]
TAK1-TAB1
  IC50: 0.36 µM
A549 cells
  IC50: 0.75 µM
  activity at 5 µM: 0%
  activity at 50 µM: 0%

## C=C(C#N)c1c[nH]c2ncnc(OCC(C)C)c12 [Example 197, 2-(4-isobutoxy-7H-pyrrolo[2,3-d]pyrimidin-5-yl)acrylonitrile]
TAK1-TAB1
  IC50: 0.75 µM
A549 cells
  activity at 5 µM: 128%
  activity at 50 µM: 75%

## CC(C)COc1ncnc2[nH]cc(C/C=C/C(N)=O)c12 [Example 198, 4-(4-isobutoxy-7H-pyrrolo[2,3-d]pyrimidin-5-yl)-but-2-enoic acid amide]
TAK1-TAB1
  IC50: 0.42 µM
A549 cells
  IC50: 8.4 µM
  activity at 5 µM: 4%
  activity at 50 µM: 0%

## NC(=O)/C=C/c1c[nH]c2ncnc(OC3CCC(F)(F)CC3)c12 [Example 199, 3-[4-(4,4-difluoro-cyclohexyloxy)-7H-pyrrolo[2,3-c]pyrimidin-5-yl]-acrylamide]
TAK1-TAB1
  IC50: 0.016 µM
A549 cells
  IC50: 0.18 µM
  activity at 5 µM: 0%
  activity at 50 µM: 0%

## COC(=O)/C=C/c1c[nH]c2ncnc(OCc3ccccc3)c12 [Example 201, (E)-3-(4-benzyloxy-7H-pyrrolo[2,3-d]pyrimidin-5-yl)-acrylic acid methylester]
TAK1-TAB1
  IC50: 0.35 µM
A549 cells
  IC50: 0.8 µM
  activity at 5 µM: 26%
  activity at 50 µM: 1%
